The values that follow come from patent US20240285552A1 (priority 2020, published 2024).

Where two headings read alike, the source gives them in different places. Residues, ends and D or L forms follow the SMILES beside them. *: point of attachment. Cbz = O=C(OCc1ccccc1)*; CH2F = FC*

The subject of one series is SARS-CoV-2 USA_WA1/2020. In words: microbe, parasite or virus in culture. The format is cell-based.
The subject of another series is Vero E6 cells. As to conditions: Example C (Table 4); for Conc. at Max. % Viability / Conc. at Min. % Viability / Max. Viability / Min. Viability: Vero E6.
Series [1] in a line: in vitro. The following applies: African green monkey.
For series [2], the target named is T1, recombinant human ACE2 (rhACE2) (Homo sapiens, UniProt Q9BYF1).
T1 construct: purchased BPS Bioscience 79923
As to the kind of experiment: ACE2 inhibitor screening assay (exopeptidase activity), CLQ and analogues, ZnCl2. Type of series: biochemical. Here is the method: An ACE2 inhibitor screening assay kit with fluorogenic substrate (Catalogue #79923) was purchased from BPS Bioscience (San Diego, CA) and adapted to measure the exopeptidase activity of ACE2 in the presence and absence of inhibitors. The fluorescence assay was performed using a black flat-bottom 96-well plate with a final reaction volume of 50 μL following the manufacturer's instructions. 10 mM stock solutions of the compounds were prepared in Dimethyl sulfoxide (DMSO). Next, the compounds were serially diluted in DMSO as follows: 100 μM, 50 μM, 10 μM, 1 μM, 0.5 μM, and 0.1 μM for CLQ and CLBQ14 as well as 10 μM and 1 μM for CLCQ. All experiments were performed in triplicates. Each plate contained a positive control of enzyme-treated with vehicle alone (2% DMSO) and a blank control with no enzyme. Briefly, each reaction contained 24 μL of purified recombinant human ACE2 protein (0.42 ng/L) in ACE2 buffer, 1 μL of compound at serially diluted concentrations, and 25 μL ACE2 fluorogenic substrate. The total reaction volume was 50 μL. […] Thereafter, the fluorescence intensities (λExcitation=535 nm, λEmission=595 nm) were measured using a Beckman Coulter DTX880 multimode plate reader. […]
The effects of CLQ, CLBQ14, and CLCQ on the exopeptidase activity of rhACE2 were determined using a fluorometric assay provided by BPS Bioscience and adapted accordingly. […]

For series [3], the target named is T2, rhACE2 and SARS-CoV-2 Spike (RBD) protein interaction (Homo sapiens, UniProt Q9BYF1).
T2 construct: purchased RayBiotech CoV-SACE2-1
In words: Spike (RBD)-ACE2 binding assay (ELISA). On the set-up: species or system human; SARS-CoV-2. The following applies: bell shaped dose-response curve; CLQ series; read-out: IC50_2, ACE2-Spike (RBD) protein interaction. For orientation: An ELISA detects its analyte on a solid surface through an enzyme-linked reagent.

The subject of series [4] is SARS CoV-2 nanoluciferase reporter virus. As to the kind of experiment: microbe, parasite or virus in culture. The format is cell-based. The following applies: for Concentration at Maximum % Inhibition / Maximum Inhibition: A549-ACE2, NLRV; for IC50: read-out: IC50, viral replication, Nanoluciferase Reporter Virus Assay. A general note: A reporter such as luciferase makes a cellular process visible.

Series [5] is described as follows: in vitro. The following applies: human.
[6] abbreviates: Example C (Table 3), read-out: IC 50 against SARS-COV-2 Induced Cytopathic Effect in Vero E6 Cells.
The mark [7] stands for this setting: Severe acute respiratory syndrome coronavirus 2, Vero C1008, 72 h, read-out: IC50 against SARS-CoV-2 infection induced CPE.
[8] abbreviates: Severe acute respiratory syndrome coronavirus 2, Vero C1008, Example C (Table 3), read-out: IC 50 against SARS-COV-2 Induced Cytopathic Effect in Vero E6 Cells.
Where [9] appears, read: Severe acute respiratory syndrome coronavirus 2, Vero C1008, Vero E6, Example B, highest concentration tested 30 μM, read-out: IC50 against SARS-CoV-2 infection induced CPE.
[10] abbreviates: Cytotoxicity CC50, Vero E6, 72 hours, Example C (Table 4).
[11] abbreviates: 50% cytotoxic concentration (CC50), Vero E6, 72 hours, Examples A and B, highest concentration 30 μM.
Where [12] appears, read: Severe acute respiratory syndrome coronavirus 2, A549, 72 h.
Setting [13] is: Cytotoxicity CC50, A549 cells, 72 hours.

T1 sequence (Q9BYF1 18-805): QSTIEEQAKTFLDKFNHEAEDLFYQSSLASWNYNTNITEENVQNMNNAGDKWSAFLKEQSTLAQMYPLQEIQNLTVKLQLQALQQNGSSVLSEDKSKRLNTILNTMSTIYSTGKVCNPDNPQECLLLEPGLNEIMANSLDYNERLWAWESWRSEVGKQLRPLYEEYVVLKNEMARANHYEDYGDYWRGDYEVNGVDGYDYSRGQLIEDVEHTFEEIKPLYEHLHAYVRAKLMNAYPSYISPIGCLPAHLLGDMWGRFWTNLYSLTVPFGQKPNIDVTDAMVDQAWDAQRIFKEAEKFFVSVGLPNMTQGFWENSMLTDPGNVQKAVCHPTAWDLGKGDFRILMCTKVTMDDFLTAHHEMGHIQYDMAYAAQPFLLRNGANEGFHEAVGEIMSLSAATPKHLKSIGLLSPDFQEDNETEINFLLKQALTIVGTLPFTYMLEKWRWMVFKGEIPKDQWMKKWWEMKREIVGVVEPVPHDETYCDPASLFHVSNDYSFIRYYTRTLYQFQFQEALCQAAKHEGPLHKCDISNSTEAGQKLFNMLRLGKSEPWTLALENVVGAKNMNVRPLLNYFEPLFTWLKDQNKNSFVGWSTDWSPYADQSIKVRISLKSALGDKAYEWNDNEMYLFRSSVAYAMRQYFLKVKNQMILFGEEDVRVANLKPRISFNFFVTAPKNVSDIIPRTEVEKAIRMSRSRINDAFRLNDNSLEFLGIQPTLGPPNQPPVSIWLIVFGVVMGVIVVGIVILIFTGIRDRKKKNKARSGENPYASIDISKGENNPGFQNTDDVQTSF
T2 sequence (Q9BYF1 18-740): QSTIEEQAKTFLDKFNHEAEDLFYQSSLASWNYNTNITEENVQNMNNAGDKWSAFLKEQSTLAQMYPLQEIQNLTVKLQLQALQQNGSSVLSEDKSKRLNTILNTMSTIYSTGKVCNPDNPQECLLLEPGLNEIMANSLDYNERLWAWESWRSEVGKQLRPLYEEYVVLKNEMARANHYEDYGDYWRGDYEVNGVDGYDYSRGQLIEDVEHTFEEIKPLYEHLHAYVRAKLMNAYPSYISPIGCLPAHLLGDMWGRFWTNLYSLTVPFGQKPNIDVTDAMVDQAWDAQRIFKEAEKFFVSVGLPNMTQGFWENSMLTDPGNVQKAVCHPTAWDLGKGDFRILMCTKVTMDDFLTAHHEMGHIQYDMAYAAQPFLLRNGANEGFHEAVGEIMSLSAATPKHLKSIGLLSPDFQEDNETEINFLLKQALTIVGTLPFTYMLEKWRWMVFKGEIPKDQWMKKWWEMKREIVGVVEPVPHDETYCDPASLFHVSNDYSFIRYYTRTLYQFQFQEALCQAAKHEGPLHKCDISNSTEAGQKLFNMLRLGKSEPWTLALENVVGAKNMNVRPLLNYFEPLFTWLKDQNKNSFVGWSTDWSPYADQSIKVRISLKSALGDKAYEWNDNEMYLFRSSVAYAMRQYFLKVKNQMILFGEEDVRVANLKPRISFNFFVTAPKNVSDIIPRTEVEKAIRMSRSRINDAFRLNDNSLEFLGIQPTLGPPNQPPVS

Turning to `CCOC(=O)[C@H]1O[C@@H]1C(=O)N[C@@H](CC(C)C)C(=O)NCCC(C)C` [Aloxistatin], in the series on SARS-CoV-2 USA_WA1/2020 (Example C (Table 3)), the “Concentration at Maximum % Inhibition” value was determined as 15 µM and the “Maximum Inhibition” value is listed as 130.81%. Also, the IC50 in the series with SARS-CoV-2 USA_WA1/2020 (setting [6]) was found to be 4.59 µM. Besides, in the series with SARS-CoV-2 USA_WA1/2020 (setting [7]), the IC50 turned out to be 16.7 µM. For the same compound, the IC50 in the series on SARS-CoV-2 USA_WA1/2020 (setting [8]) came to 4.58 µM. Further, in the series with SARS-CoV-2 USA_WA1/2020 (setting [9]), the IC50 is 21.8 µM. Further, in the series with Vero E6 cells, the “Conc. at Max. % Viability” value was 234 nM, the “Conc. at Min. % Viability” value is 117 nM, the “Max. Viability” value is 106.71% and the “Min. Viability” value turned out to be 93.02%. Moreover, in “in vitro [1]” (setting [10]), the CC50 at 72 h was > 30 µM.
Regarding `Oc1c(Br)cc(Cl)c2cccnc12` [CLBQ14, 7-bromo-5-chloro-8-hydroxyquinoline], the IC50 with SARS-CoV-2 USA_WA1/2020 (setting [7]) came to 14.7 µM. The inhibition at 30 µM in the series with SARS-CoV-2 USA_WA1/2020 (Severe acute respiratory syndrome coronavirus 2, Vero C1008, at 30 μM, Example A, read-out: maximum inhibition of CPE) is ~103%. In the series “in vitro [1]” (setting [11]), the CC50 at 72 h is > 30 µM.
Turning to `Oc1c(Cl)cc(Cl)c2cccnc12` [CLCQ, 5,7-Dichloro-8-hydroxyquinoline], the IC50 in the series on SARS-CoV-2 USA_WA1/2020 (setting [7]) came to 16.3 µM. Further, the CC50 in “in vitro [1]” (setting [11]) was > 30 µM.
As to `Oc1c(I)cc(Cl)c2cccnc12` [CLQ, 5-chloro-7-iodo-8-quinolinol], the IC50 in series [2] (2.5 hours, room temperature, read-out: IC50 against rhACE2 exopeptidase activity) was 5.36 µM; in the series on SARS-CoV-2 USA_WA1/2020 (setting [7]), 12.6 µM; in series [3] it was 18.2 µM. For the same compound, in the series “in vitro [1]” (setting [11]), the CC50 at 72 h was > 30 µM.
As to `CC(C)C[C@H](NC(=O)OCc1ccccc1)C(=O)N[C@@H](CC(C)C)C(=O)N[C@@H](Cc1ccc(O)cc1)C(=O)CF` [Calpain Inhibitor IV] (Cbz-Leu-Leu-Tyr-CH2F), the “Concentration at Maximum % Inhibition” value was 7.17 µM with SARS-CoV-2 USA_WA1/2020 (Example C (Table 3)) and “.0028 µM” in series [4]. In addition, the “Maximum Inhibition” value was determined as 115.91% in the series on SARS-CoV-2 USA_WA1/2020 (Example C (Table 3)) and 99.56% in series [4]. The IC50 with SARS-CoV-2 USA_WA1/2020 (Vero E6, Example B, highest concentration tested 30 μM, read-out: IC50 against SARS-CoV-2 infection induced CPE) stood at 0.29 µM; with SARS-CoV-2 USA_WA1/2020 (read-out: IC 50 against SARS-COV-2 Induced Cytopathic Effect in Vero E6 Cells), 3.73 µM; in the series with SARS-CoV-2 USA_WA1/2020 (read-out: IC50 against SARS-CoV-2 infection induced CPE) it was 0.41 µM; in series [4], 0.0005 µM. In addition, the figures for the “Conc. at Max. % Viability” value in the series on Vero E6 cells and in the series with A549 cells were 56 nM and 90 nM, respectively. Also, the “Conc. at Min. % Viability” value amounted to 28 nM in the series on Vero E6 cells and 5.6 nM with A549 cells. Also, the entries for the “Max. Viability” value with Vero E6 cells and in the series with A549 cells were 106.84% and 94.37%, respectively. Also, the “Min. Viability” value worked out at 99.77% in the series on Vero E6 cells and 77.49% in the series with A549 cells. The CC50 in the series on Vero E6 cells (read-out: Cytotoxicity CC50, Vero E6, 72 hours) was > 7.17 µM; in the series with A549 cells (read-out: Cytotoxicity CC50, 72 hours), > 0.179 µM.
Turning to `CCN(CC)CCCC(C)Nc1ccnc2cc(Cl)ccc12` (centres unmarked) [Chloroquine], the entries for the “Concentration at Maximum % Inhibition” value (with SARS-CoV-2 USA_WA1/2020 (Example C (Table 3)); in series [4]) were 30 µM and 15 µM, respectively. For the same compound, the “Maximum Inhibition” value turned out to be 114.51% with SARS-CoV-2 USA_WA1/2020 (Example C (Table 3)) and 99.53% in series [4]. For the same compound, the IC50 in the series on SARS-CoV-2 USA_WA1/2020 (setting [7]) was 1.1 µM; in the series with SARS-CoV-2 USA_WA1/2020 (setting [8]), 8.85 µM; with SARS-CoV-2 USA_WA1/2020 (setting [9]), 3.56 µM; in series [4] (setting [12]), 3.3 µM. The figures for the “Conc. at Max. % Viability” value in the series with Vero E6 cells and with A549 cells were 469 nM and 23 nM, respectively. The “Conc. at Min. % Viability” value in the series on Vero E6 cells was determined as 3750 nM; in the series on A549 cells, 30000 nM. Besides, the “Max. Viability” value in the series on Vero E6 cells is given as 99.66%; in the series on A549 cells it was 117.48%. Besides, the results for the “Min. Viability” value in the series on Vero E6 cells and with A549 cells were 90.50% and 9.11%, respectively. Further, the CC50 at 72 h in “in vitro [1]” was > 30 µM; in the series “in vitro [5]”, 18.4 µM.
In the case of `CCN(CCO)CCCC(C)Nc1ccnc2cc(Cl)ccc12` (centres unmarked) [Hydroxychloroquine], the IC50 was found to be 5.04 µM with SARS-CoV-2 USA_WA1/2020 (setting [7]) and 5.16 µM in the series with SARS-CoV-2 USA_WA1/2020 (setting [9]).
For the compound `CC(C)C(=O)OC[C@H]1O[C@@H](n2ccc(NO)nc2=O)[C@H](O)[C@@H]1O` [Molnupiravir], in series [4], the “Concentration at Maximum % Inhibition” value worked out at 10 µM and the “Maximum Inhibition” value was 91.12%. Also, the IC50 in series [4] (setting [12]) worked out at 4.2 µM. Further, in the series with A549 cells, the “Conc. at Max. % Viability” value was found to be 2 nM, the “Conc. at Min. % Viability” value was 14 nM, the “Max. Viability” value was determined as 98.56% and the “Min. Viability” value was found to be 88.88%. Besides, the CC50 at 72 h in “in vitro [5]” (setting [13]) is > 10 µM.
As for `CC(C)(C)[C@H](NC(=O)C(F)(F)F)C(=O)N1C[C@H]2[C@@H]([C@H]1C(=O)N[C@H](C#N)C[C@@H]1CCNC1=O)C2(C)C` [PF-07321332], in series [4], the “Concentration at Maximum % Inhibition” value is 0.5 µM, the “Maximum Inhibition” value is on record as 99.67% and the IC50 amounted to 0.057 µM. In addition, the IC50 in series [4] (listed as Paxlovid) was 0.05 µM.
As for `CCC(CC)COC(=O)[C@H](C)N[P@](=O)(OC[C@H]1O[C@@](C#N)(c2ccc3c(N)ncnn23)[C@H](O)[C@@H]1O)Oc1ccccc1` [Remdesivir], the results for the “Concentration at Maximum % Inhibition” value (in the series with SARS-CoV-2 USA_WA1/2020 (Example C (Table 3)); in series [4]) were 30 µM and 1.5 µM, respectively. The results for the “Maximum Inhibition” value (in the series on SARS-CoV-2 USA_WA1/2020 (Example C (Table 3)); in series [4]) were 120.89% and 99.58%, respectively. The IC50 with SARS-CoV-2 USA_WA1/2020 (setting [6]) was determined as 16.1 µM; in the series on SARS-CoV-2 USA_WA1/2020 (setting [7]) it was 4.42 µM; in the series on SARS-CoV-2 USA_WA1/2020 (setting [8]), 16 µM; with SARS-CoV-2 USA_WA1/2020 (setting [9]), 8.54 µM. Moreover, the “Conc. at Max. % Viability” value with Vero E6 cells turned out to be 3750 nM; in the series with A549 cells, 6 nM. For the same compound, the results for the “Conc. at Min. % Viability” value with Vero E6 cells and in the series with A549 cells were 117 nM and 94 nM, respectively. Besides, the “Max. Viability” value with Vero E6 cells came out at 100.73%; with A549 cells, 95.46%. The entries for the “Min. Viability” value in the series with Vero E6 cells and with A549 cells were 91.15% and 84.65%, respectively. Moreover, the CC50 in the series “in vitro [1]” (setting [10]) was > 30 µM; in “in vitro [5]” (setting [13]), > 3 µM.
Regarding `[Cl-].[Cl-].[Zn+2]` [ZnCl2, Zinc Chloride], in series [2] (100 μM to 100 nM), the “effect on rhACE2 exopeptidase activity” value is recorded as “increasing exopeptidase activity”.

One may read the inhibition as the relative decrease from the control value, in per cent.
